Test results taken from PubChem BioAssay AID248 (DTP/NCI, 2004).
Where “and” joins values, the source holds several entries; their conditions need not be identical. Identical values can stand only once. Toxic doses and inconclusive results are not listed.

Test system: L1210 leukemia ip in BDF1 mice, survival T/C
Assay: NCI In Vivo Anticancer Drug Screen. Data for tumor model L1210 Leukemia (intraperitoneal) in B6D2F1 (BDF1) mice
Conditions: endpoint: mean survival time, higher = longer survival
Procedure, shortened: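 Survival endpoint. Drug-treated group vs vehicle group, expressed as T divided by C. Tumor passaged by transplantation.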

[1] = dose: 25.0 mg/kg/injection, schedule: Q04DX003 (ip), vehicle: Klucel (hydroxypropylcellulose) (HPC)
[2] = dose: 50.0 mg/kg/injection, schedule: Q01DX009 (ip), vehicle: Klucel (hydroxypropylcellulose) (HPC)
[3] = dose: 50.0 mg/kg/injection, schedule: Q04DX003 (ip), vehicle: Klucel (hydroxypropylcellulose) (HPC)
[4] = dose: 100.0 mg/kg/injection, schedule: Q01DX009 (ip), vehicle: Klucel (hydroxypropylcellulose) (HPC)
[5] = dose: 100.0 mg/kg/injection, schedule: Q04DX003 (ip), vehicle: Klucel (hydroxypropylcellulose) (HPC)
[6] = dose: 200.0 mg/kg/injection, schedule: Q01DX009 (ip), vehicle: Klucel (hydroxypropylcellulose) (HPC)
[7] = dose: 100.0 mg/kg/injection, schedule: Q04DX003 (ip), vehicle: saline
[8] = dose: 200.0 mg/kg/injection, schedule: Q04DX003 (ip), vehicle: saline
[9] = dose: 400.0 mg/kg/injection, schedule: Q04DX003 (ip), vehicle: saline
[10] = dose: 100.0 mg/kg/injection, schedule: Q04DX003 (ip), vehicle: saline with Tween-80
[11] = dose: 12.5 mg/kg/injection, schedule: Q04DX003 (ip), vehicle: saline
[12] = dose: 25.0 mg/kg/injection, schedule: Q04DX003 (ip), vehicle: saline
[13] = dose: 400.0 mg/kg/injection, schedule: Q01DX009 (ip), vehicle: Klucel (hydroxypropylcellulose) (HPC)
[14] = dose: 200.0 mg/kg/injection, schedule: Q04DX003 (ip), vehicle: Klucel (hydroxypropylcellulose) (HPC)

Which T/C [1] does the source give for CCCCCCCNC(=O)Nc1cccc(Cl)c1C here?
Its T/C is 103 % of control.

And the T/C [2]?
Its T/C is 101 % of control.

And the T/C [3]?
Its T/C is 101 % of control.

And the T/C [4]?
The T/C was 89 % of control.

And the T/C [5]?
Its T/C is 95 % of control and 101 % of control.

And the T/C [6]?
Its T/C is 93 % of control.

How did the T/C [7] turn out when COc1ccc(CCN2CCCC2C(=O)O)cc1OC (stereo unspecified) was run?
The T/C was 96 % of control.

And the T/C [8]?
The T/C was 94 % of control.

And the T/C [9]?
Its T/C is 100 % of control.

For O=S(=O)(O)c1cc(O)c2c(N=Nc3c(S(=O)(=O)O)cc4cc(S(=O)(=O)O)cc(N=Nc5c(S(=O)(=O)O)cc6cc(S(=O)(=O)O)cc(O)c6c5O)c4c3O)cc(S(=O)(=O)O)cc2c1, which T/C [10] is on record?
Its T/C is 94 % of control.

And the T/C (dose: 200.0 mg/kg/injection, schedule: Q04DX003 (ip), vehicle: saline with Tween-80)?
The T/C was 96 % of control.

What about the T/C (dose: 400.0 mg/kg/injection, schedule: Q04DX003 (ip), vehicle: saline with Tween-80) of the same molecule?
The T/C was 96 % of control.

Which results are given for NC(N)=N/N=C(/c1ccccc1)c1ccc(Cl)cc1?
T/C (dose: 15.0 mg/kg/injection, schedule: Q01DX Z (ip), vehicle: saline): 90 % of control; T/C (dose: 30.0 mg/kg/injection, schedule: Q01DX Z (ip), vehicle: saline): 92 % of control; T/C (dose: 60.0 mg/kg/injection, schedule: Q01DX Z (ip), vehicle: saline): 97 % of control; T/C (dose: 60.0 mg/kg/injection, schedule: Q01DX Z (oral), vehicle: saline): 95 % of control; T/C (dose: 120.0 mg/kg/injection, schedule: Q01DX Z (ip), vehicle: saline): 110 % of control; T/C (dose: 120.0 mg/kg/injection, schedule: Q01DX Z (oral), vehicle: saline): 92 % of control; T/C (dose: 240.0 mg/kg/injection, schedule: Q01DX Z (ip), vehicle: saline): 108 % of control; T/C (dose: 240.0 mg/kg/injection, schedule: Q01DX Z (oral), vehicle: saline): 107 % of control; T/C (dose: 480.0 mg/kg/injection, schedule: Q01DX010 (oral), vehicle: saline): 96 % of control; T/C (dose: 960.0 mg/kg/injection, schedule: Q01DX010 (oral), vehicle: saline): 91 % of control

CCCC(=O)NC(=S)Nc1ccccc1 was tested. Which T/C (dose: 75.0 mg/kg/injection, schedule: Q01DX001 (ip), vehicle: carboxymethylcellulose (CMC)) did it give?
Its T/C is 98 % of control.

CC(=O)OCC1=C(C(=O)O)N2C(=O)C(NC(=O)CSc3ccncc3)C2SC1 (stereo unspecified) was tested. Which T/C (dose: 100.0 mg/kg/injection, schedule: Q04DX002 (ip), vehicle: saline) did it give?
The T/C was 103 % of control.

And the T/C (dose: 200.0 mg/kg/injection, schedule: Q04DX002 (ip), vehicle: saline)?
The T/C was 114 % of control.

And the T/C (dose: 400.0 mg/kg/injection, schedule: Q04DX002 (ip), vehicle: saline)?
The T/C was 107 % of control.

For COc1ccn(C)c(=O)n1, which T/C (dose: 12.5 mg/kg/injection, schedule: Q01DX009 (ip), vehicle: saline) is on record?
Its T/C is 112 % of control.

What about the T/C [11] of the same molecule?
Its T/C is 110 % of control.

What about the T/C (dose: 25.0 mg/kg/injection, schedule: Q01DX009 (ip), vehicle: saline) of the same molecule?
Its T/C is 93 % of control.

What about the T/C [12] of the same molecule?
The T/C was 91 % of control.

And the T/C (dose: 50.0 mg/kg/injection, schedule: Q04DX003 (ip), vehicle: saline)?
The T/C was 96 % of control.

Which results are given for Cn1c(C(=O)O)cc2ccccc21?
T/C [4]: 110 % of control; T/C [6]: 112 % of control; T/C [13]: 96 % of control

What does the source list for N#CCN1CCCN(CC#N)C1?
T/C (dose: 25.0 mg/kg/injection, schedule: Q01DX009 (ip), vehicle: Klucel (hydroxypropylcellulose) (HPC)): 96 % of control; T/C [2]: 115 % of control; T/C [4]: 88 % of control and 91 % of control; T/C [5]: 92 % of control; T/C [14]: 103 % of control

With CCOC(=O)N1C=Cn2c(cnc2C)C1O (stereo unspecified) as the molecule, how does the T/C (dose: 50.0 mg/kg/injection, schedule: Q01DX009 (ip), vehicle: saline) read?
Its T/C is 94 % of control.

What about the T/C (dose: 100.0 mg/kg/injection, schedule: Q01DX009 (ip), vehicle: saline) of the same molecule?
Its T/C is 94 % of control.

And the T/C (dose: 100.0 mg/kg/injection, schedule: Q01DX009 (ip), vehicle: water)?
Its T/C is 102 % of control.

What about the T/C [7] of the same molecule?
The T/C was 102 % of control.

And the T/C (dose: 200.0 mg/kg/injection, schedule: Q01DX009 (ip), vehicle: saline)?
Its T/C is 100 % of control and 91 % of control.

And the T/C (dose: 200.0 mg/kg/injection, schedule: Q01DX009 (ip), vehicle: water)?
The T/C was 90 % of control.

What about the T/C [8] of the same molecule?
Its T/C is 109 % of control.

And the T/C (dose: 400.0 mg/kg/injection, schedule: Q01DX009 (ip), vehicle: water)?
The T/C was 93 % of control.

And the T/C [9]?
The T/C was 107 % of control.

How did the T/C [4] turn out when CC(C(=O)O)N1C(=O)c2ccccc2C1=O (stereo unspecified) was run?
The T/C was 93 % of control.

And the T/C [5]?
Its T/C is 92 % of control.

What about the T/C [6] of the same molecule?
Its T/C is 95 % of control.

And the T/C [14]?
Its T/C is 97 % of control.

What about the T/C [13] of the same molecule?
The T/C was 90 % of control.

And the T/C (dose: 400.0 mg/kg/injection, schedule: Q04DX003 (ip), vehicle: Klucel (hydroxypropylcellulose) (HPC))?
Its T/C is 94 % of control.

How did the T/C (dose: 100.0 mg/kg/injection, schedule: Q04DX003 (ip), vehicle: alcohol) turn out when CCCNC(C)(C)C(SSS)c1cccs1 (stereo unspecified) was run?
The T/C was 102 % of control.

And the T/C (dose: 200.0 mg/kg/injection, schedule: Q04DX003 (ip), vehicle: alcohol)?
The T/C was 101 % of control.

How did the T/C (dose: 6.25 mg/kg/injection, schedule: Q04DX003 (ip), vehicle: saline) turn out when COc1ccc([I+]c2ccccc2)cc1 was run?
Its T/C is 98 % of control.

And the T/C (dose: 9.0 mg/kg/injection, schedule: Q01DX009 (ip), vehicle: saline)?
Its T/C is 104 % of control.

And the T/C [11]?
The T/C was 101 % of control.

And the T/C (dose: 25.0 mg/kg/injection, schedule: Q01DX001 (ip), vehicle: saline with Tween-80)?
The T/C was 102 % of control.

And the T/C (dose: 25.0 mg/kg/injection, schedule: Q01DX009 (ip), vehicle: saline with Tween-80)?
Its T/C is 102 % of control.

And the T/C (dose: 25.0 mg/kg/injection, schedule: Q04DX003 (ip), vehicle: saline with Tween-80)?
Its T/C is 98 % of control.

And the T/C [12]?
The T/C was 109 % of control.

What about the T/C (dose: 36.0 mg/kg/injection, schedule: Q04DX003 (ip), vehicle: saline) of the same molecule?
The T/C was 95 % of control.

And the T/C (dose: 50.0 mg/kg/injection, schedule: Q01DX001 (ip), vehicle: saline with Tween-80)?
The T/C was 102 % of control.

What about the T/C (dose: 50.0 mg/kg/injection, schedule: Q01DX009 (ip), vehicle: saline with Tween-80) of the same molecule?
Its T/C is 111 % of control.

And the T/C (dose: 50.0 mg/kg/injection, schedule: Q04DX003 (ip), vehicle: saline with Tween-80)?
The T/C was 93 % of control.

And the T/C (dose: 100.0 mg/kg/injection, schedule: Q01DX001 (ip), vehicle: saline with Tween-80)?
The T/C was 98 % of control.

What about the T/C (dose: 100.0 mg/kg/injection, schedule: Q01DX009 (ip), vehicle: saline with Tween-80) of the same molecule?
The T/C was 105 % of control.

What about the T/C [10] of the same molecule?
Its T/C is 97 % of control.

With CCN(CC)CCNCc1ccc(Cl)cc1 as the molecule, how does the T/C [1] read?
The T/C was 92 % of control.

And the T/C [3]?
Its T/C is 96 % of control.

What about the T/C (dose: 75.0 mg/kg/injection, schedule: Q04DX003 (ip), vehicle: Klucel (hydroxypropylcellulose) (HPC)) of the same molecule?
Its T/C is 96 % of control and 103 % of control.

What does the source list for CCCCOP(=O)(Nc1ccc(Cl)cc1)OCCCC?
T/C (dose: 100.0 mg/kg/injection, schedule: Q04DX002 (ip), vehicle: saline with Tween-80): 101 % of control; T/C (dose: 200.0 mg/kg/injection, schedule: Q04DX002 (ip), vehicle: saline with Tween-80): 94 % of control; T/C (dose: 400.0 mg/kg/injection, schedule: Q04DX002 (ip), vehicle: saline with Tween-80): 105 % of control

Which results are given for CCc1ccc(C)[n+](N)c1?
T/C (dose: 50.0 mg/kg/injection, schedule: Q01DX001 (ip), vehicle: saline): 103 % of control; T/C (dose: 100.0 mg/kg/injection, schedule: Q01DX001 (ip), vehicle: saline): 109 % of control

For O=S(=O)(O)Sc1ncnc2nc[nH]c12, which T/C (dose: 125.0 mg/kg/injection, schedule: Q01DX009 (ip), vehicle: water) is on record?
Its T/C is 162 % of control.

What about the T/C (dose: 250.0 mg/kg/injection, schedule: Q01DX009 (ip), vehicle: water) of the same molecule?
The T/C was 159 % of control.

And the T/C (dose: 250.0 mg/kg/injection, schedule: Q04DX003 (ip), vehicle: water)?
The T/C was 153 % of control.
